From PubChem BioAssay AID588447 (Southern Research Specialized Biocontainment Screening …, 2011) come the findings set out here.

Each structure is given as a SMILES string. Values joined by “and” are separate entries in the source; they are usually repeats but may differ in a detail not shown here. Equal entries are not always repeated. Active and inactive are the calls of the source. How the calls were made is not given here.

Assay [1] has as its system Mycobacterium tuberculosis H37Rv growth, 7H9 media. Kind of assay: Mycobacterium tuberculosis growth inhibition, dose response, 7H9 media, purified and synthesized compounds, set 8 (AID 588447). As to conditions: for IC50: measured here: IC50 growth inhibition replicates.
Assay in assay [2]: as above
The settings on record: Mycobacterium tuberculosis H37Rv growth, 7H9 media.

The IC50 is the midpoint of a concentration-inhibition curve. As usually defined, the IC90 is the concentration needed for an effect of 90%.

In assay [1], `CC(=O)c1ccc(NC(=O)c2ccc(CNc3c(N4CCOCC4)c(=O)c3=O)cc2)cc1` displayed an IC50 of 75.7 µM.
As for `CCOC(=O)N1CCC(Nc2c(Nc3cccc(CC)c3)c(=O)c2=O)CC1`, in assay [1], the IC90 is 87.5 µM and the IC50 came out at 61.5 µM.
Take `CC1CCCN(C(=O)c2ccc(CNc3c(N4CCCCC4)c(=O)c3=O)cc2)C1` (centres undefined): the IC50 in assay [1] turned out to be 7 µM.
Still for that read-out and setting: under `COc1ccc(N2CCN(C(=O)c3ccc(CNc4c(N5CCOCC5)c(=O)c4=O)cc3)CC2)cc1` stands 10.7 µM and 9.56 µM.
Regarding `CC1CC(C)CN(C(=O)c2ccc(CNc3c(N4CCCC4)c(=O)c3=O)cc2)C1` (centres undefined), the IC50 in assay [1] was 12.4 µM.
The molecule `Cc1cccc(N2CCN(C(=O)c3ccc(CNc4c(N5CCC(C)CC5)c(=O)c4=O)cc3)CC2C)c1` (centres undefined) showed an IC50 in assay [1] of 63.7 µM.
In the case of `CCOC(=O)CSc1ncnc2c1cnn2-c1ccccc1`, the IC50 in assay [1] is 26.8 µM.
On to `CCOc1ccc(NC(=O)c2ccc(CNc3c(N4CCCC4)c(=O)c3=O)cc2)cc1`, for which the growth inhibition in assay [2] (at 100 µM (top of the series)) is -0.71% (inactive).
`CC1CCN(C(=O)c2ccc(CNc3c(N4CCCC4)c(=O)c3=O)cc2)CC1`: the IC50 in assay [1] stood at 9.07 µM.
Regarding `O=C(C1CCC(CNc2c(N3CCCCC3)c(=O)c2=O)CC1)N1CCCCC1` (centres undefined), the IC50 in assay [1] is 30.8 µM.
With `O=C(NCCc1ccc(Cl)cc1)C1CCC(CNc2c(N3CCCCC3)c(=O)c2=O)CC1` (centres undefined), the IC50 in assay [1] is 56.3 µM.
In the case of `O=C(c1ccc(CNc2c(N3CCCC3)c(=O)c2=O)cc1)N1CCc2ccccc2C1`, the half-maximal inhibitory concentration (IC50) in assay [1] came out at 7.01 µM.
`COC(=O)CSc1ncnc2c1cnn2-c1ccc(C)cc1C`: in assay [1], the IC90 is 5.94 µM and the IC50 amounted to 4.77 µM.
In assay [1], `CC(C)OC(=O)CSc1ncnc2c1cnn2-c1ccccc1` registered an IC50 of 34.1 µM.
For the molecule `O=C(c1ccc(CNc2c(N3CCCC3)c(=O)c2=O)cc1)N1CC=C(c2ccccc2)CC1`, in assay [1], the IC90 is 25.3 µM; the IC50 was 7.68 µM and 4.36 µM.
`CC1CCCN(C(=O)C2CCC(CNc3c(N4CCCCC4)c(=O)c3=O)CC2)C1` (centres undefined) registered an IC50 in assay [1] of 39.8 µM.
With `CCOC(=O)CSc1ncnc2c1cnn2-c1ccc(C)cc1C`, in assay [1], the IC90 was 5.85 µM and the IC50 is 4.29 µM.
Take `CC1CC(C)CN(C(=O)C2CCC(CNc3c(N4CCCCC4)c(=O)c3=O)CC2)C1` (centres undefined): the IC50 in assay [1] is 19.9 µM and 26.3 µM.
On the same count and under the same terms, the result for `O=C(NCCc1ccc(Cl)cc1)c1ccc(CNc2c(N3CCOCC3)c(=O)c2=O)cc1` reads 8.33 µM and 7.05 µM.
On to `O=C(c1ccc(CNc2c(N3CCOCC3)c(=O)c2=O)cc1)N1CC=C(c2ccccc2)CC1`, for which, in assay [1], the IC90 was 7.8 µM and the IC50 stood at 2.54 µM.
In assay [1], `Cc1cccc(N2CCN(C(=O)c3ccc(CNc4c(N5CCC(C)CC5)c(=O)c4=O)cc3)CC2)c1C` gave an IC50 of 24.6 µM. For the same molecule, the growth inhibition in assay [2] (at 75 µM (top of the series)) was 15.6% (inactive).
`CCC(C)NC(=O)CSc1nc2ccccc2c(=O)[nH]1` (centres undefined): in assay [1], the IC90 was 8.3 µM and the IC50 worked out at 5.98 µM.
